Assay results: patent US10821115B2, “Compounds that inhibit Mcl-1 protein” (priority 2017, dated 2020)
Like-named read-outs stand apart in the source and are kept apart here.

Experiments:
[1] = system: human multiple myeloma cell line, OPM-2; assay: Cell viability assay (OPM-2 10 FBS), CellTiter-Glo; assay type: cell-based
Summary of the method: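 Steps: plate cells at 3000/well in 10% FBS growth medium, add serially diluted compound, incubate 16 h at 37 °C with 5% CO2, add detection reagent and read luminescence after 25 min. A 4-parameter logistic model gives IC50.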

[2] = molecular target: recombinant human Mcl-1 (residues 171-327) / Bim interaction (Homo sapiens (Human), UniProt Q07820); assay: biochemical; assay type: binding; conditions: read-out: Mcl-1 HTRF IC50
Chain of recombinant human Mcl-1 (residues 171-327) / Bim interaction (Q07820 171-327): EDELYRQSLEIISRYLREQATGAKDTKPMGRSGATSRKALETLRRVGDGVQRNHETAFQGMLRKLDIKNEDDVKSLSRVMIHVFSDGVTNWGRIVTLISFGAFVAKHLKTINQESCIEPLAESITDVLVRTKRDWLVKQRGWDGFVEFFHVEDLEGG

[3] = read-out: OPM-2 10% FBS IC50 IP, OPM-2 cells, 10% FBS, 16 h, CellTiter-Glo
[4] = TR-FRET, Mcl-1(171-327) / biotin-Bim (51-76)
[5] = Homo sapiens, OPM-2, 16 h, read-out: OPM-2 10% FBS IC50 IP, OPM-2 cells, 10% FBS, 16 h, CellTiter-Glo

SMILES	IC50 [1, 3] [nM]	IC50 [2, 4] [nM]	IC50 [1, 5] [nM]	IC50 [2] [nM]
CO[C@@]1(CS(=O)(=O)C(C)C)/C=C/C[C@H](C)[C@@H](C)S(=O)(=O)NC(=O)c2ccc3c(c2)N(C[C@@H]2CC[C@H]21)C[C@@]1(CCCc2cc(Cl)ccc21)CO3 [Example 100316, (1S,3′R,6′R,7′S,8′E,11′S,12′R)-6-chloro-7′-methoxy-11′,12′-dimethyl-7′-((2-propanylsulfonyl)methyl)-3,4-dihydro-2H,15′H-spiro[naphthalene-1,22′-[20]oxa[13]thia[1,14]diazatetracyclo [14.7.2.0~3,6~.0~19,24~]pentacosa[8,16,18,24]tetraen]-15′-one 13′,13′-dioxide]	375	0.276		
CO[C@]1(CC(=O)N2CC[C@@H](N(C)C)C2)/C=C/C[C@H](C)[C@@H](C)S(=O)(=O)NC(=O)c2ccc3c(c2)N(C[C@@H]2CC[C@H]21)C[C@@]1(CCCc2cc(Cl)ccc21)CO3 [Example 100317, (1S,3′R,6′R,7′R,8′E,11′S,12′R)-6-chloro-7′-(2-((3R)-3-(dimethylamino)-1-pyrrolidinyl)-2-oxoethyl)-7′-methoxy-11′,12′-dimethyl-3,4-dihydro-2H,15′H-spiro[naphthalene-1,22′-[20]oxa[13]thia[1,14]diazatetracyclo [14.7.2.0~3,6~.0~19,24~]pentacosa[8,16,18,24]tetraen]-15′-one 13′,13′-dioxide]		0.188	157	
C[C@@H]1[C@@H](C)C/C=C/[C@@](O)(C#CCN2CCOCC2)[C@@H]2CC[C@H]2CN2C[C@@]3(CCCc4cc(Cl)ccc43)COc3ccc(cc32)C(=O)NS1(=O)=O [Example 100320, (1S,3′R,6′R,7′S,8′E,11′S,12′R)-6-chloro-7′-hydroxy-11′,12′-dimethyl-7′-(3-(4-morpholinyl)-1-propyn-1-yl)-3,4-dihydro-2H,15′H-spiro[naphthalene-1,22′-[20]oxa[13]thia[1,14]diazatetracyclo [14.7.2.0~3,6~.0~19,24~]pentacosa[8,16,18,24]tetraen]-15′-one 13′,13′-dioxide]	2140	1.2		
CO[C@]1(CC=O)/C=C/C[C@H](C)[C@@H](C)S(=O)(=O)NC(=O)c2ccc3c(c2)N(C[C@@H]2CC[C@H]21)C[C@@]1(CCCc2cc(Cl)ccc21)CO3 [Example 100322, ((1S,3′R,6′R,7′R,8′E,11′S,12′R)-6-chloro-7′-methoxy-11′,12′-dimethyl-13′,13′-dioxido-15′-oxo-3,4-dihydro-2H-spiro[naphthalene-1,22′-[20]oxa[13]thia[1,14]diazatetracyclo [14.7.2.0~3,6~.0~19,24~]pentacosa[8,16,18,24]tetraen]-7′-yl)acetaldehyde]		2.23	1540	
CO[C@@]1(CC=O)/C=C/C[C@H](C)[C@@H](C)S(=O)(=O)NC(=O)c2ccc3c(c2)N(C[C@@H]2CC[C@H]21)C[C@@]1(CCCc2cc(Cl)ccc21)CO3 [Example 100323, ((1S,3′R,6′R,7′S,8′E,11′S,12′R)-6-chloro-7′-methoxy-11′,12′-dimethyl-13′,13′-dioxido-15′-oxo-3,4-dihydro-2H-spiro[naphthalene-1,22′-[20]oxa[13]thia[1,14]diazatetracyclo [14.7.2.0~3,6~.0~19,24~]pentacosa[8,16,18,24]tetraen]-7′-yl)acetaldehyde]		0.477	1250	
C[C@@H]1[C@@H](C)C/C=C/[C@@](O)(C#CCCN2CCOCC2)[C@@H]2CC[C@H]2CN2C[C@@]3(CCCc4cc(Cl)ccc43)COc3ccc(cc32)C(=O)NS1(=O)=O [Example 100327, (1S,3′R,6′R,7′S,8′E,11′S,12′R)-6-chloro-7′-hydroxy-11′,12′-dimethyl-7′-(4-(4-morpholinyl)-1-butyn-1-yl)-3,4-dihydro-2H,15′H-spiro[naphthalene-1,22′-[20]oxa[13]thia[1,14]diazatetracyclo [14.7.2.0~3,6~.0~19,24~]pentacosa[8,16,18,24]tetraen]-15′-one 13′,13′-dioxide]	550	0.295		
C[C@@H]1[C@@H](C)CCC[C@](C)([C@H]2OC[C@@H](N(C)C)CO2)[C@@H]2CC[C@H]2CN2C[C@@]3(CCCc4cc(Cl)ccc43)COc3ccc(cc32)C(=O)NS1(=O)=O [Example 100328, (1S,3′R,6′R,7′S,11′S,12′R)-6-chloro-7′-(cis-5-(dimethylamino)-1,3-dioxan-2-yl)-7′,11′,12′-trimethyl-3,4-dihydro-2H,15′H-spiro[naphthalene-1,22′-[20]oxa[13]thia[1,14]diazatetracyclo [14.7.2.0~3,6~.0~19,24~]pentacosa[16,18,24]trien]-15′-one 13′,13′-dioxide]		0.261	180	
C[C@@H]1[C@@H](C)CCC[C@@](O)(CC[S@@+](C)[O-])[C@@H]2CC[C@H]2CN2C[C@@]3(CCCc4cc(Cl)ccc43)COc3ccc(cc32)C(=O)NS1(=O)=O [Example 100329, (1S,3′R,6′R,7′R,11′S,12′R)-6-chloro-7′-hydroxy-11′,12′-dimethyl-7′-(2-((R)-methylsulfinyl)ethyl)-3,4-dihydro-2H,15′H-spiro[naphthalene-1,22′-[20]oxa[13]thia[1,14]diazatetracyclo [14.7.2.0~3,6~.0~19,24~]pentacosa[16,18,24]trien]-15′-one 13′,13′-dioxide]		5.02	1560	
C[C@@H]1[C@@H](C)CCC[C@](O)(CC[S@@+](C)[O-])[C@@H]2CC[C@H]2CN2C[C@@]3(CCCc4cc(Cl)ccc43)COc3ccc(cc32)C(=O)NS1(=O)=O [Example 100330, (1S,3′R,6′R,7′S,11′S,12′R)-6-chloro-7′-hydroxy-11′,12′-dimethyl-7′-(2-((R)-methylsulfinyl)ethyl)-3,4-dihydro-2H,15′H-spiro[naphthalene-1,22′-[20]oxa[13]thia[1,14]diazatetracyclo [14.7.2.0~3,6~.0~19,24~]pentacosa[16,18,24]trien]-15′-one 13′,13′-dioxide]		0.083	8260	
C[C@@H]1[C@@H](C)C/C=C/[C@](O)(c2cccc(F)n2)[C@@H]2CC[C@H]2CN2C[C@@]3(CCCc4cc(Cl)ccc43)COc3ccc(cc32)C(=O)NS1(=O)=O [Example 100331, (1S,3′R,6′R,7′R,8′E,11′S,12′R)-6-chloro-7′-(6-fluoro-2-pyridinyl)-7′-hydroxy-11′,12′-dimethyl-3,4-dihydro-2H,15′H-spiro[naphthalene-1,22′-[20]oxa[13]thia[1,14]diazatetracyclo [14.7.2.0~3,6~.0~19,24~]pentacosa[8,16,18,24]tetraen]-15′-one 13′,13′-dioxide]		0.192	8260	
CC#C[C@]1(OC)CCC[C@H](C)[C@@H](C)S(=O)(=O)NC(=O)c2ccc3c(c2)N(C[C@@H]2CC[C@H]21)C[C@@]1(CCCc2cc(Cl)ccc21)CO3 [Example 100332, (1S,3′R,6′R,7′S,11′S,12′R)-6-chloro-7′-methoxy-11′,12′-dimethyl-7′-(1-propyn-1-yl)-3,4-dihydro-2H,15′H-spiro[naphthalene-1,22′-[20]oxa[13]thia[1,14]diazatetracyclo [14.7.2.0~3,6~.0~19,24~]pentacosa[16,18,24]trien]-15′-one 13′,13′-dioxide]		6.46	4310	
C[C@@H]1[C@@H](C)C/C=C/[C@@](O)(COS(C)(=O)=O)[C@@H]2CC[C@H]2CN2C[C@@]3(CCCc4cc(Cl)ccc43)COc3ccc(cc32)C(=O)NS1(=O)=O [Example 100335, ((1S,3′R,6′R,7′S,8′E,11′S,12′R)-6-chloro-7′-hydroxy-11′,12′-dimethyl-13′,13′-dioxido-15′-oxo-3,4-dihydro-2H-spiro[naphthalene-1,22′-[20]oxa[13]thia[1,14]diazatetracyclo [14.7.2.0~3,6~.0~19,24~]pentacosa[8,16,18,24]tetraen]-7′-yl)methyl methanesulfonate]		0.319	165	
C[C@@H]1[C@@H](C)CCC[C@@](C=O)(CN2CCOCC2)[C@@H]2CC[C@H]2CN2C[C@@]3(CCCc4cc(Cl)ccc43)COc3ccc(cc32)C(=O)NS1(=O)=O [Example 100336, (1S,3′R,6′R,7′S,11′S,12′R)-6-chloro-11′,12′-dimethyl-7′-(4-morpholinylmethyl)-15′-oxo-3,4-dihydro-2H-spiro[naphthalene-1,22′-[20]oxa[13]thia[1,14]diazatetracyclo [14.7.2.0~3,6~.0~19,24~]pentacosa[16,18,24]triene]-7′-carbaldehyde 13′,13′-dioxide]			1810	1.12
C[C@@H]1[C@@H](C)CCC[C@](C=O)(CN2CCOCC2)[C@@H]2CC[C@H]2CN2C[C@@]3(CCCc4cc(Cl)ccc43)COc3ccc(cc32)C(=O)NS1(=O)=O [Example 100337, (1S,3′R,6′R,7′R,11′S,12′R)-6-chloro-11′,12′-dimethyl-7′-(4-morpholinylmethyl)-15′-oxo-3,4-dihydro-2H-spiro[naphthalene-1,22′-[20]oxa[13]thia[1,14]diazatetracyclo [14.7.2.0~3,6~.0~19,24~]pentacosa[16,18,24]triene]-7′-carbaldehyde 13′,13′-dioxide]			2410	1.61
C[C@@H]1[C@@H](C)CCCC(CO)(CO)[C@@H]2CC[C@H]2CN2C[C@@]3(CCCc4cc(Cl)ccc43)COc3ccc(cc32)C(=O)NS1(=O)=O [Example 100342, (1S,3′R,6′R,11′S,12′R)-6-chloro-7′,7′-bis(hydroxymethyl)-11′,12′-dimethyl-3,4-dihydro-2H,15′H-spiro[naphthalene-1,22′-[20]oxa[13]thia[1,14]diazatetracyclo [14.7.2.0~3,6~.0~19,24~]pentacosa[16,18,24]trien]-15′-one 13′,13′-dioxide]		1.69	782	
